Source: patent publication US20120190751A1, “COMPOUNDS FOR TREATMENTS OF INFLAMMATION” (ANA-MAR AB, priority 2009, published 2012)

Key:
[1] = test system: antigen-induced arthritis; test: Antigen-induced arthritis (AIA) in the rat, knee-joint swelling; type: in vivo
Text: Antigen-Induced Arthritis (AIA) is a Well-Documented Animal Experimental Model of human arthritic disease (Dumonde, D. C. and Glynn, L. E. (1962), Br. J. Exp. Pathol. 43:373-383). In this model, inflammation is induced by immunization followed by an intra-articular (knee-joint) challenge with the antigen. This causes an increase in knee diameter due to the formation of a pannus, i.e. hyperproliferative synovial tissue, which spreads over the articular cartilage into the bone, leading to erosion and destruction of the joint tissue (Carpenter, T. A. et al. (1994), Skeletal Radiol. 23:429-437).
AIA was applied for a short-term in vivo evaluation of our test compounds, with treatment during 4 days.
Female Dark Agouti rats were sensitized subcutaneously at the tail root with 1 mg mBSA (Sigma A1009) dissolved in 50 μl saline and emulsified in 50 μl Freund's complete adjuvant (Sigma F5881). Eleven days later the rats were challenged (unilateral) with an intra-articular (i.a.) injection of 75 μg mBSA dissolved in 50 μl saline. The procedures were carried out under a brief Isoflurane anaesthesia. Animals were treated once or twice daily with oral administration of N-(2-chloro-3,4-dimethoxybenzylideneamino)guanidine in saline. […] The knee-joint swelling was measured daily with an odimeter/calliper; the body weight was recorded before arthritis induction and at the end of the experiment. […]

5HT2B receptor = 5HT2B receptor (Homo sapiens, UniProt P41595); test: Radio-ligand binding assay 5-HT2B
Procedure: (§1) Determination of binding affinities for various 5-HT receptors was performed by radio-ligand binding assays. Briefly, tissue or cells expressing the receptor of interest were suspended in incubation buffer and radio-ligands and 10 μM N-(2-chloro-3,4-dimethoxybenzylidene-amino)guanidine were added. After incubation, separation of bound and free radio-ligand was done by multiple washings with buffer.
(§2) The results were presented as the percent inhibition of specific binding. The IC50 values were determined by a non-linear least square regression analysis using MathIQ™ (ID Business Solution Ltd., UK). The inhibition constants (Ki) were calculated using the equation of Cheng and Prusoff (Cheng Y, Prusoff W H, Biochem. Pharmacol. 22:3099-3108, 1973) using the observed IC50 of the tested compound, the concentration of radioligand employed in the assay and the historical values for the KD of the ligand.

5-HT2C receptor = target: T1, 5-HT2C receptor (Homo sapiens, UniProt P28335); test: 5-HT2C GTPγS binding assay (functionality); type: biochemical; conditions: FIG. 2, read-out: IC50, antagonistic effect on 5-HT2C
T1 sequence (P28335 33-458): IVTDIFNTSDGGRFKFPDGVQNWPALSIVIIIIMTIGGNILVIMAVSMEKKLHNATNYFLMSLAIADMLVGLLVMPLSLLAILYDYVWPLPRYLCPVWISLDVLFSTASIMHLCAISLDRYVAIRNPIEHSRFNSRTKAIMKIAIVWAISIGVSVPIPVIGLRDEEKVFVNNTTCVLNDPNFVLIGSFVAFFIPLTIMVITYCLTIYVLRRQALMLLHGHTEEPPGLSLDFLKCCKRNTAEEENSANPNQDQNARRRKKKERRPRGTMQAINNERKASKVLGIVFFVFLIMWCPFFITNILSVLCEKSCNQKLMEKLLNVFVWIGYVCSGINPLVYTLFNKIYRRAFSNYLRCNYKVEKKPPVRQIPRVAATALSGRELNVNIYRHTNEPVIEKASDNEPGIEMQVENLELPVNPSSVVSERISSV
Procedure: (§3) FIG. 2. Antagonistic effect of N-(2-chloro-3,4-dimethoxybenzylideneamino)guanidine on 5-HT2B and 5-HT2C receptors. The functionality of the compound was evaluated with the 5-HT2B tissue assay and the 5-HT2C GTPγS binding assay methods.
(§4) N-(2-chloro-3,4-dimethoxybenzylideneamino)guanidine was further tested for functionality against 5-HT2B (Cohen et al. (1987), J. Pharmacol. Exp. Ther. 243:264-269), 5-HT2C (Adlersber M, et al. (2000), J. Neurosci. Res. 61(6):674-685; Cussac D. et al. (2002), Mol. Pharmacol. 62(3):578-589) and 5-HT4 (Reeves et al. (1991), Br. J. Pharmacol. 103:1067-1072).

5-HT2A receptor = 5-HT2A receptor (Homo sapiens, UniProt P28223); test: Radio-ligand binding assay 5-HT2A; conditions: 10 μM compound; [3H]-Ketanserin 2 nM; human cortex
Procedure: as §1, §2

5-HT2B receptor = target: T2, 5-HT2B receptor (Rattus norvegicus, UniProt P30994); test: 5-HT2B tissue assay (functionality, rat stomach fundus contraction); type: cell-based; conditions: FIG. 2, read-out: IC50, antagonistic effect on 5-HT2B
T2 construct: induces contraction in the rat stomach fundus from Wistar rats; from tissue; host or cells: rat (Wistar) stomach fundus
Procedure: (Cohen M L, Fludzinski L A. Contractile serotonergic receptor in rat stomach fundus. J. Pharmacol. Exp. Ther. (1987 October); 243(1):264-269.)
as §3, §4

5-HT3 receptor = target: T3, 5-HT3 receptor (Homo sapiens, UniProt P46098); test: Radio-ligand binding assay 5-HT3; conditions: 10 μM compound; [3H] GR65630 35 nM; human rec. HEK293 cells
T3 sequence (P46098 24-478): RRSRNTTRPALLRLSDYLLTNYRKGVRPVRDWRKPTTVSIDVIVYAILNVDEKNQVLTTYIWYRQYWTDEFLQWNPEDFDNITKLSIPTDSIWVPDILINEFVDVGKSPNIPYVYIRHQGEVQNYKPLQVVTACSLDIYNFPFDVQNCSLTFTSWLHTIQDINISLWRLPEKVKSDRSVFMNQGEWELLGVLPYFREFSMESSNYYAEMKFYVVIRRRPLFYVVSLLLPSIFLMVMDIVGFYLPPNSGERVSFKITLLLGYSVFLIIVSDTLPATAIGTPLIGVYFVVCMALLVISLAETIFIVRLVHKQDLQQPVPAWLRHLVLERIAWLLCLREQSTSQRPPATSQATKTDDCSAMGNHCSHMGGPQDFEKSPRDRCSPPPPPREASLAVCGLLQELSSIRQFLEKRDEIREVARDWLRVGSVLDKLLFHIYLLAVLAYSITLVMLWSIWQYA
Procedure: as §1, §2

Chain of 5HT2B receptor (P41595 whole entry): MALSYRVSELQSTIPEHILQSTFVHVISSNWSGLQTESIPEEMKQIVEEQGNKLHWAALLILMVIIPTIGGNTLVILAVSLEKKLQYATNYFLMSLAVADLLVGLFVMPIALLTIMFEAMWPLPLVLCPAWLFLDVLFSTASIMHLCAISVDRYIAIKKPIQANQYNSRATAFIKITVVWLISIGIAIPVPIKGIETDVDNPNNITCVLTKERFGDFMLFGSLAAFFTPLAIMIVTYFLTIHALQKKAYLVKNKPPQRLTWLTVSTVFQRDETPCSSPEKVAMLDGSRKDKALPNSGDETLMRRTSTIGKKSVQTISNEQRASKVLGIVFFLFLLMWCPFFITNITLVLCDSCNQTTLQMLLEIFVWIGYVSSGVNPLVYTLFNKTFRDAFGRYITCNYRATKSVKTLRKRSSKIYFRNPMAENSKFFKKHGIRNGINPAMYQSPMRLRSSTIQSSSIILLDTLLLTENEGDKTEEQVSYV
Chain of 5-HT2A receptor (P28223 whole entry): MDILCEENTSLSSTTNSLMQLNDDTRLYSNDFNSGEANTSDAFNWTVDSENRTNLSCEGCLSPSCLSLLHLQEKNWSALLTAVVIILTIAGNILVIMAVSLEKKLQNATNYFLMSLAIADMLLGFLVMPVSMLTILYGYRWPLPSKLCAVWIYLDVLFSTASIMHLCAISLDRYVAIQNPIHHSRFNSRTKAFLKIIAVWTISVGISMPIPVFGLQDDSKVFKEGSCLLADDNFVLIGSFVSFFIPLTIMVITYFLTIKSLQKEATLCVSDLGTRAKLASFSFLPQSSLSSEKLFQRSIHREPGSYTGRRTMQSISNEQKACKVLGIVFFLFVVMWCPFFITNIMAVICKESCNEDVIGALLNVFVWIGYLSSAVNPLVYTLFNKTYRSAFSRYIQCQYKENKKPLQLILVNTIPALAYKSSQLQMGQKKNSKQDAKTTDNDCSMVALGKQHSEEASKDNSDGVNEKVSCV
T2 sequence (P30994 whole entry): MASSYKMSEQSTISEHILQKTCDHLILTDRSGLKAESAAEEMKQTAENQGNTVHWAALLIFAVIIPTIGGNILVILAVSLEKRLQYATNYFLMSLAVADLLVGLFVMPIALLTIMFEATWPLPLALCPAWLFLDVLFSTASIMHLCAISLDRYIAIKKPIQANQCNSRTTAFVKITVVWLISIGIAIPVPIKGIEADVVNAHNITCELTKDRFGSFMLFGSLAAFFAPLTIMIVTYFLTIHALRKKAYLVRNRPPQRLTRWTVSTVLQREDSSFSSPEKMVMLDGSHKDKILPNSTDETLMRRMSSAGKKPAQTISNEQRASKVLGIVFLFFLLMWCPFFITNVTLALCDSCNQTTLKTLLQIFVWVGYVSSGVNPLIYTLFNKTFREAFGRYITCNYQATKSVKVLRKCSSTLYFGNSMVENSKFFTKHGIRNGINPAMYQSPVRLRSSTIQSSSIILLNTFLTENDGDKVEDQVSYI

Question: Which “effect in AIA at administration one day after disease induction” value ([1]; administration started one day after disease induction) does the source give for `COc1ccc(C=NNC(=N)N)c(Cl)c1OC` [N-(2-chloro-3,4-dimethoxybenzylideneamino)guanidine] here?
Answer: therapeutic effect

Question: What about the “knee-joint swelling in AIA” value ([1]; oral, 1-10 mg/kg once or twice daily for 4 days from day of challenge, FIG. 5) of the same compound?
Answer: reproducibly reduce joint swelling

Question: What about the inhibition at 10 µM (5HT2B receptor; 10 μM compound, [3H] LSD 1.2 nM, human rec. CHO.K1 cells) of the same compound?
Answer: 107%

Question: What about the Ki (5HT2B receptor; 10 different concentrations, Cheng-Prusoff, FIG. 1) of the same compound?
Answer: 0.263 µM

Question: What about the IC50 (5-HT2C receptor) of the same compound?
Answer: 16.5 µM

Question: And the inhibition at 10 µM (5-HT2A receptor)?
Answer: 45%

Question: What about the IC50 (5-HT2B receptor) of the same compound?
Answer: 61.7 µM

Question: What about the inhibition at 10 µM (5-HT3 receptor) of the same compound?
Answer: 3.3%
